Tests used:
Type in all cases: cell-based, Staphylococcus aureus
MRSA = assay: Optimization of cefoxitin concentration (Table 2), MRSA strains
Procedure: Bacterial strains were serially diluted to approximately 1×10^3 CFU/mL and transferred to a 96-well plate at 135 μL per well. 15 μL of cefoxitin was added to the wells to reach a final concentration of 1.4 μg/mL, 1.6 μg/mL, 1.8 μg/mL or 2.0 μg/mL. The plate was then sealed and incubated at 37° C. for 2 hours. 10 μL of recombinant phage (1.6×10^8 pfu/mL) was added to each well. The plate was then re-sealed and incubated at 37° C. for an additional 2 hours. A master mix was made containing 15 μL 5× lysis buffer, 50 μL luciferase assay buffer, and 1 μL luciferase substrate per well. 65 μL of master mix was added to each well. Luminescence from the reactions were read on a GLOMAX® Navigator and relative luminal units (RLU) for each reaction were plotted and analyzed. RLU values three times greater than an established background RLU level for LB (>750 RLU) were considered positive. The results, shown in Table 2, indicate that the recombinant phage are capable of detecting these bacterial strains. […] Positive results are in bold.

12600 MSSA = assay: Effect of duration of antibiotic and phage exposure on MSSA signal (Table 5)
Procedure: Bacterial strains were serially diluted and transferred to a 96-well plate at 135 μL per well. 15 μL of cefoxitin was added to the wells to reach a final concentration of 1.8 μg/mL, 3.6 μg/mL, or 5.4 μg/mL. The plate was then sealed and incubated at 37° C. for 2 hours or 3 hours. 10 μL of recombinant phage (1.6×10^8 pfu/mL) was added to each well. The plate was then re-sealed and incubated at 37° C. for an additional 1 or 2 hours. A master mix was made containing 15 μL 5× lysis buffer, 50 μL luciferase assay buffer, and 1 μL luciferase substrate per well. 65 μL of master mix was added to each well. Luminescence from the reactions was read on a GLOMAX® Navigator and relative luminal units (RLU) for each reaction were plotted and analyzed. RLU values three times greater than an established background RLU level for LB (>750 RLU) were considered positive. The results, shown in Table 5, indicate that the number of MSSA strains producing false-positives at the previously established cut-off of 1.8 μg/mL cefoxitin were reduced with a 3-hour antibiotic/1-hour phage protocol when compared to a 2-hour antibiotic/2-hour phage protocol. A false positive occurred at 541 CFU with the 2-hour antibiotic/2-hour phage protocol. Whereas, the 3-hour antibiotic/1-hour phage protocol produced false positives at 4331 CFU. Positive results are in bold. In Table 5, CFU values (541 CFU and 305 CFU) were experimentally validated by direct plating.

BAA-1720 - MRSA = assay: Table 6, MRSA alone; conditions: MSSA detected CFU 0, MRSA 38
Procedure: Bacterial strains were serially diluted and transferred to a 96-well plate at 135 μL per well. 15 μL of cefoxitin was added to the wells to reach a final concentration of 1.8 μg/mL. The plate was then sealed and incubated at 37° C. for 2 hours or 3 hours. 10 μL of recombinant phage (1.6×10^8 pfu/mL) was added to each well. The plate was then re-sealed and incubated at 37° C. for an additional 1 or 2 hours. A master mix was made containing 15 μL 5× lysis buffer, 50 μL luciferase assay buffer, and 1 μL luciferase substrate per well. 65 μL of master mix was added to each well. Luminescence from the reactions was read on a GLOMAX® Navigator and relative luminal units (RLU) for each reaction were plotted and analyzed. RLU values three times greater than an established background RLU level for LB (>750 RLU) were considered positive. The results, shown in Table 6, indicate that samples with MRSA (38 CFU) can be distinguished from samples containing MSSA (up to 5088 CFU) using a 3-hour antibiotic/1-hour phage incubation protocol. Positive results are in bold. In Table 6, CFU values (318 CFU and 156 CFU) were experimentally validated by direct plating.

[1] = strain AR0470 MRSA, detected CFU 314
[2] = strain BAA-2313 MRSA, detected CFU 192

## CO[C@@]1(NC(=O)Cc2cccs2)C(=O)N2C(C(=O)O)=C(COC(N)=O)CS[C@@H]21 [Cefoxitin, cefoxitin]
MRSA; 1.8 ug/mL, most of the tested MRSA strains
  effect on positive signal: produced a positive signal
MRSA; strain AR0461 MRSA, detected CFU 140
  Cefoxitin Concentration 1.4 ug/mL: 9488 RLU
MRSA; strain AR0467 MRSA, detected CFU 198
  Cefoxitin Concentration 2 ug/mL: 6615 RLU
MRSA; strain AR0469 MRSA, detected CFU 473
  Cefoxitin Concentration 1.8 ug/mL: 13490 RLU
MRSA; [1]
  Cefoxitin Concentration 1.6 ug/mL: 2481 RLU
  Cefoxitin Concentration 1.8 ug/mL: 2046 RLU
MRSA; [2]
  Cefoxitin Concentration 1.4 ug/mL: 8601 RLU
  Cefoxitin Concentration 1.6 ug/mL: 5620 RLU
  Cefoxitin Concentration 1.8 ug/mL: 3239 RLU
  Cefoxitin Concentration 2 ug/mL: 2385 RLU
12600 MSSA; detected CFU 305
  Cefoxitin (RLU) - 2 Hour Antibiotic + 2 Hour Phage 1.8 ug/mL: 600 RLU
  Cefoxitin (RLU) - 2 Hour Antibiotic + 2 Hour Phage 3.6 ug/mL: 225 RLU
  Cefoxitin (RLU) - 2 Hour Antibiotic + 2 Hour Phage 5.4 ug/mL: 244 RLU
  Cefoxitin (RLU) - 3 Hour Antibiotic + 1 Hour Phage 1.8 ug/mL: 267 RLU
  Cefoxitin (RLU) - 3 Hour Antibiotic + 1 Hour Phage 3.6 ug/mL: 198 RLU
  Cefoxitin (RLU) - 3 Hour Antibiotic + 1 Hour Phage 5.4 ug/mL: 184 RLU
12600 MSSA; detected CFU 541
  Cefoxitin (RLU) - 2 Hour Antibiotic + 2 Hour Phage 1.8 ug/mL: 1065 RLU
  Cefoxitin (RLU) - 2 Hour Antibiotic + 2 Hour Phage 3.6 ug/mL: 224 RLU
  Cefoxitin (RLU) - 2 Hour Antibiotic + 2 Hour Phage 5.4 ug/mL: 217 RLU
  Cefoxitin (RLU) - 3 Hour Antibiotic + 1 Hour Phage 1.8 ug/mL: 258 RLU
  Cefoxitin (RLU) - 3 Hour Antibiotic + 1 Hour Phage 3.6 ug/mL: 215 RLU
  Cefoxitin (RLU) - 3 Hour Antibiotic + 1 Hour Phage 5.4 ug/mL: 171 RLU
12600 MSSA; detected CFU 1083
  Cefoxitin (RLU) - 2 Hour Antibiotic + 2 Hour Phage 1.8 ug/mL: 1718 RLU
  Cefoxitin (RLU) - 2 Hour Antibiotic + 2 Hour Phage 3.6 ug/mL: 395 RLU
  Cefoxitin (RLU) - 2 Hour Antibiotic + 2 Hour Phage 5.4 ug/mL: 277 RLU
  Cefoxitin (RLU) - 3 Hour Antibiotic + 1 Hour Phage 1.8 ug/mL: 415 RLU
  Cefoxitin (RLU) - 3 Hour Antibiotic + 1 Hour Phage 3.6 ug/mL: 201 RLU
  Cefoxitin (RLU) - 3 Hour Antibiotic + 1 Hour Phage 5.4 ug/mL: 208 RLU
12600 MSSA; detected CFU 2165
  Cefoxitin (RLU) - 2 Hour Antibiotic + 2 Hour Phage 1.8 ug/mL: 3046 RLU
  Cefoxitin (RLU) - 2 Hour Antibiotic + 2 Hour Phage 3.6 ug/mL: 424 RLU
  Cefoxitin (RLU) - 2 Hour Antibiotic + 2 Hour Phage 5.4 ug/mL: 331 RLU
  Cefoxitin (RLU) - 3 Hour Antibiotic + 1 Hour Phage 1.8 ug/mL: 604 RLU
  Cefoxitin (RLU) - 3 Hour Antibiotic + 1 Hour Phage 3.6 ug/mL: 218 RLU
  Cefoxitin (RLU) - 3 Hour Antibiotic + 1 Hour Phage 5.4 ug/mL: 202 RLU
12600 MSSA; detected CFU 4331
  Cefoxitin (RLU) - 2 Hour Antibiotic + 2 Hour Phage 1.8 ug/mL: 5703 RLU
  Cefoxitin (RLU) - 2 Hour Antibiotic + 2 Hour Phage 3.6 ug/mL: 563 RLU
  Cefoxitin (RLU) - 2 Hour Antibiotic + 2 Hour Phage 5.4 ug/mL: 487 RLU
  Cefoxitin (RLU) - 3 Hour Antibiotic + 1 Hour Phage 1.8 ug/mL: 933 RLU
  Cefoxitin (RLU) - 3 Hour Antibiotic + 1 Hour Phage 3.6 ug/mL: 196 RLU
  Cefoxitin (RLU) - 3 Hour Antibiotic + 1 Hour Phage 5.4 ug/mL: 194 RLU
12600 MSSA; detected CFU 8662
  Cefoxitin (RLU) - 2 Hour Antibiotic + 2 Hour Phage 1.8 ug/mL: 11570 RLU
  Cefoxitin (RLU) - 2 Hour Antibiotic + 2 Hour Phage 3.6 ug/mL: 1224 RLU
  Cefoxitin (RLU) - 2 Hour Antibiotic + 2 Hour Phage 5.4 ug/mL: 979 RLU
  Cefoxitin (RLU) - 3 Hour Antibiotic + 1 Hour Phage 1.8 ug/mL: 1563 RLU
  Cefoxitin (RLU) - 3 Hour Antibiotic + 1 Hour Phage 3.6 ug/mL: 247 RLU
  Cefoxitin (RLU) - 3 Hour Antibiotic + 1 Hour Phage 5.4 ug/mL: 224 RLU
12600 MSSA; detected CFU 17323
  Cefoxitin (RLU) - 2 Hour Antibiotic + 2 Hour Phage 1.8 ug/mL: 22890 RLU
  Cefoxitin (RLU) - 2 Hour Antibiotic + 2 Hour Phage 3.6 ug/mL: 2071 RLU
  Cefoxitin (RLU) - 2 Hour Antibiotic + 2 Hour Phage 5.4 ug/mL: 1493 RLU
  Cefoxitin (RLU) - 3 Hour Antibiotic + 1 Hour Phage 1.8 ug/mL: 2695 RLU
  Cefoxitin (RLU) - 3 Hour Antibiotic + 1 Hour Phage 3.6 ug/mL: 255 RLU
  Cefoxitin (RLU) - 3 Hour Antibiotic + 1 Hour Phage 5.4 ug/mL: 246 RLU
BAA-1720 - MRSA
  2 HR AB + 2 HR Phage 1.8 ug/mL: 4218 RLU
  3 HR AB + 1 HR Phage 1.8 ug/mL: 3136 RLU
